Experimental data as given in ChEMBL document CHEMBL5149978, “Structural insights of oxindole based kinase inhibitors as anticancer agents: Recent advances” (Eur J Med Chem, 2021).

Assays:
MCF7 [1] = experiment: Anti-proliferative against human MCF-7 cells by SRB colorimetric assay; type: functional, cell-based
MCF7 [2] = experiment: Anti-proliferative against human MCF-7 cells by MTT assay; type: functional, cell-based
T47D = experiment: Anti-proliferative against human T-47D cells by MTT assay; type: functional, cell-based
HCT-116 [3] = experiment: Antiproliferative against human HCT-116 cells assessed as reduction in cell proliferation incubated for 72 hrs by MTT assay; type: functional, cell-based; conditions: HCT-116, 72 h
MDA-MB-231 [4] = experiment: Anti-proliferative activity against human MDA-MB-231 cells measured after 48 hrs by MTT assay; type: functional, cell-based; conditions: MDA-MB-231, 48 h
HeLa [5] = experiment: Anti-proliferative against human HeLa cells incubated for 48 hrs by MTT assay; type: functional, cell-based
A549 [6] = experiment: Anti-proliferative against human A549 cells incubated for 48 hrs by MTT assay; type: functional, cell-based; conditions: A549, 48 h
SW-620 = experiment: Anti-proliferative against human SW620 cells incubated for 48 hrs by MTT assay; type: functional, cell-based; conditions: SW-620, 48 h
[7] = molecular target: Serine/threonine-protein kinase pim-1 (Homo sapiens, UniProt P11309); experiment: Inhibition of PIM1 (unknown origin)
MDA-MB-231 [8] = experiment: Anti-proliferative against human MDA-MB-231 cells by SRB colorimetric assay; type: functional, cell-based
[9] = Inhibition of tyrosine kinase receptor (unknown origin) by ELISA; design: species or system Homo sapiens
HeLa [10] = experiment: Cytotoxicity against human HeLa cells measured after 48 hrs by MTS assay; type: functional, cell-based
[11] = molecular target: Cyclin-dependent kinase 2 (Homo sapiens, UniProt P24941); experiment: Inhibition of CDK2 (unknown origin)
A549 [12] = experiment: Anti-proliferative against human A549 cells by SRB colorimetric assay; type: functional, cell-based
HCT-116 [13] = experiment: Anti-proliferative against human HCT-116 cells by SRB colorimetric assay; type: functional, cell-based
[14] = molecular target: Apoptosis regulator Bcl-2 (Homo sapiens, UniProt P10415); experiment: Inhibition of BCL2 (unknown origin)
[15] = molecular target: Platelet-derived growth factor receptor beta (Homo sapiens, UniProt P09619); experiment: Inhibition of PDGFR beta (unknown origin)
Sequence of Platelet-derived growth factor receptor beta (P09619 whole entry): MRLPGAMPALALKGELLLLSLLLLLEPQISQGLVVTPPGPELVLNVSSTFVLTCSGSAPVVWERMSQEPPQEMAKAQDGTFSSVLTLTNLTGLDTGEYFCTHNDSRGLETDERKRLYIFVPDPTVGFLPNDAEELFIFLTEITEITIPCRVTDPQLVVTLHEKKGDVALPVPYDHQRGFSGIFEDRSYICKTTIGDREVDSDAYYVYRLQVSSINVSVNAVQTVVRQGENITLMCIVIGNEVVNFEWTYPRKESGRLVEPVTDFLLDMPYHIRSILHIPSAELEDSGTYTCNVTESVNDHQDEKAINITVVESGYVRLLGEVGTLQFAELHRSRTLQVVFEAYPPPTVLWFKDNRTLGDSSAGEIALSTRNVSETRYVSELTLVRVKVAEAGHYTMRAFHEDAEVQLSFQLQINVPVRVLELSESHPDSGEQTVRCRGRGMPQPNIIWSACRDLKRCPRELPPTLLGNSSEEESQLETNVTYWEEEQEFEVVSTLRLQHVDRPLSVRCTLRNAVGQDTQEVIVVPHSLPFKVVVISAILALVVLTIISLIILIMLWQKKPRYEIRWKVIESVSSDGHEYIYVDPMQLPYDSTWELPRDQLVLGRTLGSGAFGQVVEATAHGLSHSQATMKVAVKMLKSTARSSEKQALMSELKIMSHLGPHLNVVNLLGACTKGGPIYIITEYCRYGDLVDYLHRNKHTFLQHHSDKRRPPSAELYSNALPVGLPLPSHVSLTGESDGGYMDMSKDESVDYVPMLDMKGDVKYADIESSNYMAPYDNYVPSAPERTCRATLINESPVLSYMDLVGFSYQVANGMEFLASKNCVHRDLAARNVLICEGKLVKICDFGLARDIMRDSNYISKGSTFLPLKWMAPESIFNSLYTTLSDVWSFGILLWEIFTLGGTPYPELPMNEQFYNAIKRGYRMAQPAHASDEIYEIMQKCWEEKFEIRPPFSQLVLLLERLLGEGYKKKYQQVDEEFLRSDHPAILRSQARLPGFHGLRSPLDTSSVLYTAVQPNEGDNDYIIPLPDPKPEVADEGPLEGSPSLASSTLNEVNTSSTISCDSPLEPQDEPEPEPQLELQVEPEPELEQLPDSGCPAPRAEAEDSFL

Sequence of Apoptosis regulator Bcl-2 (P10415 whole entry): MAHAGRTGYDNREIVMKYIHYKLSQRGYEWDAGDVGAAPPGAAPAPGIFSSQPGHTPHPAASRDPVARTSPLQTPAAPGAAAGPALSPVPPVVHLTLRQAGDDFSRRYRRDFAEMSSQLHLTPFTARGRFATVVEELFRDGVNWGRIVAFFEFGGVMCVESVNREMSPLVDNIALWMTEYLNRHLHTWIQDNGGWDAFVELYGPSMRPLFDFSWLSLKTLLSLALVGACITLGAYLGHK
Sequence of Serine/threonine-protein kinase pim-1 (P11309 whole entry): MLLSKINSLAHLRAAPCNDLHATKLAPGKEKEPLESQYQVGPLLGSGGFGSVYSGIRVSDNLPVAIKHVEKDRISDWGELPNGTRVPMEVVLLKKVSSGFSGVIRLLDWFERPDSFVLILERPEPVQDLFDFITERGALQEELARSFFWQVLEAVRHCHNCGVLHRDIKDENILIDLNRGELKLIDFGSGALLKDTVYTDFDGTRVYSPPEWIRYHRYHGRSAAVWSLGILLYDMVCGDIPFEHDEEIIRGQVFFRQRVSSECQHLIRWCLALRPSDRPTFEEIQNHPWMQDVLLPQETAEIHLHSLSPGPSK

SMILES: Cc1ccc2c(c1)/C(=N/NC(=O)c1cc3ccccc3[nH]1)C(=O)N2
- IC50 (MCF7 [1]): 390 nM

SMILES: COc1ccc2c(c1)/C(=N/NC(=O)c1cc3cc(Br)ccc3o1)C(=O)N2
- IC50 (MCF7 [2]): 2270 nM
- IC50 (T47D): 7800 nM

SMILES: CCN(CC)CCN1Cc2[nH]c(/C=C3\C(=O)Nc4ccc(Br)cc43)c(C)c2C1=O
- IC50 (HCT-116 [3]): 1050 nM

SMILES: N#CC1=C(c2ccccc2)Nc2c(c(-c3cccs3)nn2-c2ccccc2)C12C(=O)Nc1ccc(Cl)cc12 (stereo unspecified)
- IC50 (MDA-MB-231 [4]): 6400 nM

SMILES: CCN(CC)CCN1Cc2[nH]c(/C=C3\C(=O)Nc4ccc(I)cc43)c(C)c2C1=O
- IC50 (HCT-116 [3]): 420 nM

SMILES: O=C(/C=C1\C(=O)Nc2ccccc21)/C=C/c1ccc(F)cc1
- IC50 (HeLa [5]): 1530 nM
- IC50 (A549 [6]): 2020 nM
- IC50 (SW-620): 130 nM
- IC50 [7]: 5000 nM

SMILES: O=C(N/N=C1\C(=O)N(Cc2ccc(F)cc2)c2ccccc21)c1cc2ccccc2[nH]1
- IC50 (MDA-MB-231 [8]): 1030 nM

SMILES: O=C1Nc2ccc(Br)cc2/C1=N/NC(=O)c1cc2cc(Br)ccc2o1
- IC50 (MCF7 [2]): 3410 nM
- IC50 (T47D): 3820 nM

SMILES: Cc1ccc2c(c1)/C(=N/NC(=O)c1cc3cc(Br)ccc3o1)C(=O)N2
- IC50 (MCF7 [2]): 3450 nM
- IC50 (T47D): 4530 nM

SMILES: COc1cccc(C[S+]([O-])/C=C2\C(=O)Nc3ccccc32)c1 (stereo unspecified)
- IC50 [9]: 2230 nM
- IC50 (HeLa [10]): 22700 nM

SMILES: CCCn1cc(/C=N/N=C2\C(=O)Nc3ccc(C)cc32)c2ccccc21
- IC50 [11]: 850 nM
- IC50 (MDA-MB-231 [8]): 4700 nM
- IC50 (A549 [12]): 7300 nM
- IC50 (HCT-116 [13]): 2600 nM
- IC50 [14]: 460 nM

SMILES: COc1ccc2c(c1)/C(=N\Nc1nnc3n1N=C(c1ccccc1)CS3)C(=O)N2
- IC50 [15]: 371 nM

SMILES: O=C1Nc2ccccc2/C1=C/[S+]([O-])Cc1ccc(Br)cc1 (stereo unspecified)
- IC50 [9]: 1340 nM
- IC50 (HeLa [10]): 24000 nM

SMILES: N#CC1=C(c2ccccc2)Nc2c(c(-c3cccs3)nn2-c2ccccc2)C12C(=O)Nc1ccc(Br)cc12 (stereo unspecified)
- IC50 (MDA-MB-231 [4]): 6700 nM
